Assays:
[1] = Fading suppressing effect, fluorescent light irradiation (Experiment Example 5); details: pH 3.1, final MY 0.003%, γ-CD 0.01%, EMIQ […]
Protocol: (§1) Specifically, a colorant-containing acidic drink of the formulation below was prepared. Then, a 3% MY preparation (product name: SanMelin**Y-AF*) and a MY/γ-CD inclusion product (MY: γ-CD=1:1.2) (containing 3% myricitrin) prepared in Example 2 were added to the drink to a final MY concentration of 0.003% or to a final γ-CD (Wacker Chemical) concentration of 0.01%.
(§2) The drinks were irradiated with a UV Fade Meter (UV Long-Life Fade Meter FAL-3, Suga Test Instruments Co., Ltd.) or a fluorescent light (BIOTRON LH 300, NK System) for the durations presented in Tables 6 and 7. Absorbance was measured before and after the irradiation, and the percentage of remaining color (%) after the irradiation was calculated. Further, as a control test, a colorant-containing acidic drink was irradiated with the UV Fade Meter or fluorescent light as above without adding anything (no addition), and the percentage of remaining color (%) after the irradiation was calculated.

[2] = Fading suppressing effect, UV Fade Meter irradiation (Experiment Example 5); details: pH 3.1, final MY 0.003%, γ-CD 0.01%, EMIQ […]
Protocol: as §1, §2

[3] = Flavor deterioration suppressing effect, sensory evaluation of drinks after light or heat stress test (Experiment Example 6); parameters: key: 1 = no-addition blank drink, 5 = drink before the test; details: added 0.1% (γ-CD 0.01%)
Protocol: Various drinks mixed with the MY or MY composition were subjected to a light or heat stress test (accelerated test) to evaluate the flavor deterioration suppressing effect of the MY or MY composition.
Specifically, eight drinks were prepared in the formulations 1 to 8 below. Then, a 3% MY preparation (product name: SanMelin**Y-AF*), a MY/γ-CD inclusion product preparation (MY: γ-CD=1:1.2) (containing 3% MY) prepared in Example 2, a MY/γ-CD inclusion product preparation (MY: γ-CD=1:1.2) (containing 6% MY) prepared in Example 3, and γ-CD (Wacker Chemical) were added thereto in the final concentrations shown in FIG. 10.
The drinks prepared as above were tested under the severity conditions presented in Table 10, and changes in drink flavor after the test were examined by six panelists in a sensory evaluation. Evaluations were made according to the following criteria on a scale of 1 (a drink with no addition (blank)) to 5 (each drink before the test).
Table 10 presents mean values of the scored points evaluated by the six panelists.

- percentage of remaining color (%) ([1]; Cochineal colorant 0.05%, fluorescent light 1 D): 64.2%
- percentage of remaining color (%) ([1]; Elderberry colorant 0.05%, fluorescent light 6 D): 63.8%
- percentage of remaining color (%) ([1]; Gardenia blue colorant 0.05%, fluorescent light (time not given)): 58.4%
- percentage of remaining color (%) ([1]; Monascus colorant, fluorescent light 4 D): 38.7%
- percentage of remaining color (%) ([1]; Paprika colorant 0.05%, fluorescent light 6 D): 71.2%
- percentage of remaining color (%) ([1]; Purple corn colorant 0.05%, fluorescent light 2 D): 65.5%
- percentage of remaining color (%) ([1]; Purple sweet potato colorant 0.05%, fluorescent light 6 D): 80.4%
- percentage of remaining color (%) ([1]; Red cabbage colorant 0.05%, fluorescent light 4 D): 62.8%
- percentage of remaining color (%) ([1]; Safflower yellow colorant 0.05%, fluorescent light 6 D): 68.1%
- percentage of remaining color (%) ([1]; β-carotene 0.05%, fluorescent light 1 D): 67.4%
- percentage of remaining color (%) ([2]; Cochineal colorant 0.05%, UV Fade Meter 6 H): 64.3%
- percentage of remaining color (%) ([2]; Elderberry colorant 0.05%, UV Fade Meter 2 H): 68.5%
- percentage of remaining color (%) ([2]; Gardenia blue colorant 0.05%, UV Fade Meter 19 H): 68.6%
- percentage of remaining color (%) ([2]; Grape juice colorant 0.1%, UV Fade Meter 2 H): 75.0%
- percentage of remaining color (%) ([2]; Monascus colorant, UV Fade Meter 3 H): 30.2%
- percentage of remaining color (%) ([2]; Paprika colorant 0.05%, UV Fade Meter 3 H): 50.3%
- percentage of remaining color (%) ([2]; Purple corn colorant 0.05%, UV Fade Meter 4 H): 72.8%
- percentage of remaining color (%) ([2]; Purple sweet potato colorant 0.05%, UV Fade Meter 7 H): 46.5%
- percentage of remaining color (%) ([2]; Red cabbage colorant 0.05%, UV Fade Meter 10 H): 53.9%
- percentage of remaining color (%) ([2]; Safflower yellow colorant 0.05%, UV Fade Meter 4 H): 48.6%
- percentage of remaining color (%) ([2]; β-carotene 0.05%, UV Fade Meter 17 H): 68.5%
Compound: OC[C@H]1O[C@@H]2O[C@H]3[C@H](O)[C@@H](O)[C@@H](O[C@H]4[C@H](O)[C@@H](O)[C@@H](O[C@H]5[C@H](O)[C@@H](O)[C@@H](O[C@H]6[C@H](O)[C@@H](O)[C@@H](O[C@H]7[C@H](O)[C@@H](O)[C@@H](O[C@H]8[C@H](O)[C@@H](O)[C@@H](O[C@H]9[C@H](O)[C@@H](O)[C@@H](O[C@H]1[C@H](O)[C@H]2O)O[C@@H]9CO)O[C@@H]8CO)O[C@@H]7CO)O[C@@H]6CO)O[C@@H]5CO)O[C@@H]4CO)O[C@@H]3CO [γ-CD, γ-cyclodextrin]
- flavor change score, mean of six panelists ([3]; Coffee, Fluorescent light (20000 lx, 16 hr, 15° C.), scale 1 to 5): 2.4
- flavor change score, mean of six panelists ([3]; Grape drink, Fluorescent light (20000 lx, 15 hr, 15° C.), scale 1 (blank) to 5 (before test)): 1.6
- flavor change score, mean of six panelists ([3]; Grapefruit drink (20% fruit juice), Fade Meter ([…]), scale 1 to 5): 2.2
- flavor change score, mean of six panelists ([3]; Grapefruit drink (20% fruit juice), Fluorescent light (20000 lx, 21 hr, 10° C.), scale 1 to 5): 2.0
- flavor change score, mean of six panelists ([3]; Grapefruit drink (20% fruit juice), Heat (55° C., 64 hr), scale 1 to 5): 2.8
- flavor change score, mean of six panelists ([3]; Grapefruit drink (100% fruit juice), Fluorescent light (20000 lx, 18 hr, 15° C.), scale 1 to 5): 2.1
- flavor change score, mean of six panelists ([3]; Lemon drink, Fluorescent light (20000 lx, 21 hr, 10° C.), scale 1 to 5): 2.2
- flavor change score, mean of six panelists ([3]; Milk tea, Fluorescent light (20000 lx, 18 hr, 15° C.), scale 1 to 5): 2.3
- flavor change score, mean of six panelists ([3]; Orange drink (20% fruit juice), Fluorescent light (20000 lx, 18 hr, 15° C.), scale 1 to 5): 2.3
- flavor change score, mean of six panelists ([3]; Sour milk beverage, Fluorescent light (20000 lx, 18 hr, 15° C.), scale 1 to 5): 2.7

— US20120015090A1, “READILY WATER-SOLUBLE MYRICITRIN COMPOSITION” (SAN-EI GEN F.F.I., INC., priority 2009, published 2012)
